The values below come from PubChem BioAssay AID743071 (Broad Institute, 2013).

This assay has as its system M. tuberculosis wild type plus biotin, growth inhibition. Put plainly: bioa inhibitor dry powder, mtb growth inhibition, wild type strain with biotin (AID 743071). As to conditions: for IC90: measured here: Mtb growth IC90.

As a reminder, the IC50 is the concentration that gives 50% inhibition. The IC90 is the concentration at which the effect reaches the 90% level.

Calls of active or inactive are those of the source. The rule behind the calls is not given here. Some results are limits rather than exact numbers.

As for `CC(=O)c1ccc(N2CCN(C(=O)c3ccc4c(c3)OCCO4)CC2)cc1`, the IC50 was > 50 µM (inactive) and the concentration for an effect of 90% (IC90) was greater than 50 µM.

As to `COC(=O)c1c(C(=O)OC)c(-c2cccc(F)c2)n2c1CS(=O)C2` (stereo not given), the IC50 is > 50 µM (inactive) and the concentration for an effect of 90% (IC90) was greater than 50 µM.

On to `COc1ccc(NC(=O)N2CCN(c3ccccc3)CC2)cc1`, for which the IC50 was > 50 µM (inactive) and the IC90 is greater than 50 µM.

With `CC(=O)c1ccc(N2CCN(Cc3ccc4c(c3)OCO4)CC2)cc1`, the IC50 is 50 µM and the 90% effect concentration (IC90) is greater than 50 µM.

Turning to `O=C(Nc1ccccc1)N1CCN(c2ccccc2)CC1`, the half-inhibitory concentration (IC50) is 11.7 µM and the 90% effect concentration (IC90) is greater than 50 µM.

`O=C(Nc1cccc(Cl)c1)N1CCN(c2ccccc2)CC1`: the half-inhibitory concentration (IC50) is 5.5 µM and the IC90 is greater than 50 µM.

Turning to `CC(=O)c1ccc(N2CCN(C(=O)c3cccc(F)c3)CC2)cc1`, the IC50 was > 50 µM (inactive) and the IC90 was greater than 50 µM.

In the case of `O=C(Nc1ccc2snnc2c1)N1CCN(c2ccccc2)CC1`, the IC50 is > 50 µM (inactive) and the IC90 is greater than 50 µM.

Turning to `CC(=O)c1ccc(N2CCN(C(=O)c3ccc4c(c3)OCO4)CC2)cc1`, the IC50 is > 50 µM (inactive) and the 90% effect concentration (IC90) was greater than 50 µM.

On to `Cc1ccc(/C=C(\CC(=O)O)c2nc3ccccc3s2)cc1[N+](=O)[O-]`, for which the IC50 was 7.2 µM and the 90% effect concentration (IC90) was greater than 50 µM.

In the case of `COc1ccc(N2CCN(C(=O)c3ccc4c(c3)OCO4)CC2)cc1`, the IC50 was 10.1 µM and the concentration for an effect of 90% (IC90) was greater than 50 µM.

`Cc1cc(C)n2nc(C(=O)Nc3cccnc3)nc2n1`: the IC50 is > 50 µM (inactive) and the concentration for an effect of 90% (IC90) is greater than 50 µM.

Consider `CCc1ccc(C(=O)N2CCN(Cc3ccc4c(c3)OCO4)CC2)cc1`, for which the half-maximal inhibitory concentration (IC50) is 8.8 µM and the IC90 is greater than 50 µM.

Regarding `COc1ccc(C(=O)N2CCN(c3ccc(C(C)=O)cc3)CC2)cc1`, the IC50 is 81.4 µM (inactive) and the 90% effect concentration (IC90) was greater than 50 µM.

For `CC(=O)c1ccc(N2CCN(C(=O)c3ccc(F)cc3)CC2)cc1`, the IC50 is > 50 µM (inactive) and the concentration for an effect of 90% (IC90) is greater than 50 µM.

Consider `O=C(Nc1cccc(F)c1)N1CCN(c2ccccc2)CC1`, for which the 50% inhibitory concentration (IC50) is 7.9 µM and the IC90 was greater than 50 µM.

Turning to `Cc1nc2ccc(NC(=O)N3CCN(c4ccccc4)CC3)cc2s1`, the IC50 was 1.9 µM and the IC90 was determined as 7.3 µM.

Regarding `O=C(Nc1cccnc1)c1cc2nc(-c3cccs3)cc(C(F)(F)F)n2n1`, the IC50 was > 50 µM (inactive) and the 90% effect concentration (IC90) is greater than 50 µM.

`Cc1ccc(/C=C(\CCC(=O)O)c2nc3ccccc3s2)cc1`: the half-inhibitory concentration (IC50) is 2.2 µM and the concentration for an effect of 90% (IC90) was 5.6 µM.

Take `Cc1ccc(/C=C(\CCC(=O)O)c2nc3ccccc3s2)cc1[N+](=O)[O-]`: the half-maximal inhibitory concentration (IC50) is 2 µM and the IC90 amounted to 8.7 µM.

For the compound `COc1cccc(NC(=O)N2CCN(c3ccccc3)CC2)c1`, the IC50 was 50 µM and the concentration for an effect of 90% (IC90) was greater than 50 µM.

For the compound `COc1cccc(C(=O)N2CCN(c3ccc(C(C)=O)cc3)CC2)c1`, the IC50 was > 50 µM (inactive) and the IC90 was greater than 50 µM.

Take `CC(=O)c1ccc(N2CCN(C(=O)c3ccc(Br)cc3)CC2)c(F)c1`: the IC50 was > 50 µM (inactive) and the IC90 was greater than 50 µM.

With `Cc1ccccc1/C=C(\CCC(=O)O)c1nc2ccccc2s1`, the concentration for half-maximal inhibition (IC50) was 8.4 µM and the IC90 turned out to be 40.4 µM.

For the compound `CC(=O)c1ccc(N2CCN(C(=O)c3ccc(Cl)cc3)CC2)cc1`, the IC50 was > 50 µM (inactive) and the concentration for an effect of 90% (IC90) is greater than 50 µM.

For the compound `COc1cccc(NC(=O)CCC2CCN(C(=O)c3ccc(C(C)=O)s3)CC2)c1`, the IC50 is > 50 µM (inactive) and the concentration for an effect of 90% (IC90) was greater than 50 µM.

Take `O=C(Nc1ccc(Cl)cc1)c1cc2nc(C3CC3)cc(C(F)(F)F)n2n1`: the IC50 is > 50 µM (inactive) and the IC90 was greater than 50 µM.

With `O=C(O)CC/C(=C\c1ccccc1[N+](=O)[O-])c1nc2ccccc2s1`, the IC50 was > 50 µM (inactive) and the IC90 was greater than 50 µM.

Regarding `CCc1ccc(N2CCN(C(=O)c3ccc4c(c3)OCO4)CC2)cc1`, the IC50 is 8.7 µM and the IC90 was greater than 50 µM.

As for `Cc1ccc(NC(=O)N2CCN(c3ccccc3)CC2)cc1`, the IC50 was 8 µM and the IC90 is greater than 50 µM.

For `O=C(O)CC/C(=C\c1ccc([N+](=O)[O-])cc1)c1nc2ccccc2s1`, the concentration for half-maximal inhibition (IC50) was 8.2 µM and the IC90 is greater than 50 µM.

Regarding `O=C(Nc1ccc(F)cc1)N1CCN(c2ccccc2)CC1`, the IC50 is 19.8 µM and the IC90 is greater than 50 µM.

Regarding `O=C(Nc1ccc2snnc2c1)N1CCCCC1`, the IC50 was 50 µM and the concentration for an effect of 90% (IC90) is greater than 50 µM.

Consider `Cc1cccc(/C=C(\CCC(=O)O)c2nc3ccccc3s2)c1`, for which the IC50 was 3.1 µM and the IC90 amounted to 11.6 µM.

With `CC(C)(C)c1ccc(C(=O)N2CCN(c3ccc4c(c3)OCO4)CC2)cc1`, the 50% inhibitory concentration (IC50) is 15 µM and the IC90 was greater than 50 µM.

In the case of `COc1ccc(-c2cc(C(F)(F)F)n3nc(C(=O)Nc4cccnc4)cc3n2)cc1`, the IC50 was > 50 µM (inactive) and the IC90 was greater than 50 µM.

`COc1cc(/C=C/C(=O)Nc2cccnc2)cc(OC)c1OC`: the IC50 is > 50 µM (inactive) and the IC90 is greater than 50 µM.

As to `CC(=O)c1ccc(N2CCN(C(=O)c3cccc(Cl)c3)CC2)cc1`, the IC50 was > 50 µM (inactive) and the concentration for an effect of 90% (IC90) is greater than 50 µM.

Take `O=C(c1ccc2c(c1)OCO2)N1CCN(c2ccc(Cl)cc2)CC1`: the IC50 is 12.7 µM and the IC90 was 42.7 µM.

For `O=C(Nc1ccncc1)c1cc2nc(C3CC3)cc(C(F)F)n2n1`, the IC50 is > 50 µM (inactive) and the IC90 is greater than 50 µM.

Regarding `O=C(c1ccc2c(c1)OCO2)N1CCN(c2ccc(F)cc2)CC1`, the half-inhibitory concentration (IC50) is 18.9 µM and the IC90 is greater than 50 µM.

Consider `O=C(Nc1ccc2snnc2c1)N1CCOCC1`, for which the IC50 is > 50 µM (inactive) and the 90% effect concentration (IC90) was greater than 50 µM.

`O=C(COc1ccc2ccc(=O)oc2c1)N1CCN(c2ccc(F)cc2)CC1`: the IC50 was > 50 µM (inactive) and the IC90 was greater than 50 µM.

Consider `CC(=O)c1ccc(N2CCN(C(=O)c3ccc(C)cc3)CC2)cc1`, for which the IC50 is > 50 µM (inactive) and the IC90 was greater than 50 µM.

For the compound `Cc1ccc(-c2cc(C(F)(F)F)n3nc(C(=O)Nc4cccnc4)cc3n2)cc1`, the IC50 is > 50 µM (inactive) and the concentration for an effect of 90% (IC90) was greater than 50 µM.

Regarding `Cc1nc2cc(NC(=O)N3CCN(c4ccccc4)CC3)ccc2o1`, the IC50 was 50 µM and the concentration for an effect of 90% (IC90) is greater than 50 µM.

With `O=C(Nc1cccnc1)N1CCN(c2ccccc2)CC1`, the IC50 was > 50 µM (inactive) and the IC90 was greater than 50 µM.

As to `CC(=O)c1ccc(N2CCN(C(=O)c3ccccc3)CC2)cc1`, the IC50 is > 50 µM (inactive) and the 90% effect concentration (IC90) was greater than 50 µM.

As to `O=C(c1ccc2c(c1)OCO2)N1CCN(c2ccccc2)CC1`, the IC50 was 22.8 µM and the IC90 was greater than 50 µM.

With `O=C(Nc1cccnc1)c1cnn2c(C(F)(F)F)cc(-c3ccccc3)nc12`, the IC50 is > 50 µM (inactive) and the 90% effect concentration (IC90) is greater than 50 µM.

With `O=C(c1ccc2c(c1)OCO2)N1CCN(Cc2ccccc2)CC1`, the IC50 is > 50 µM (inactive) and the IC90 was greater than 50 µM.

As to `O=C(Nc1cccnc1)c1cnn2c(C(F)F)cc(C3CC3)nc12`, the IC50 was > 50 µM (inactive) and the IC90 was greater than 50 µM.

For the compound `CC(=O)c1ccc(N2CCN(C(=O)c3ccc4ncsc4c3)CC2)cc1`, the IC50 was > 50 µM (inactive) and the 90% effect concentration (IC90) was greater than 50 µM.

For the compound `Cc1ccc(/C=C(\CCCC(=O)O)c2nc3ccccc3s2)cc1[N+](=O)[O-]`, the IC50 is 9.6 µM and the 90% effect concentration (IC90) is greater than 50 µM.

For the compound `O=C(Nc1ccc2[nH]ccc2c1)N1CCN(c2ccccc2)CC1`, the concentration for half-maximal inhibition (IC50) is 8.5 µM and the IC90 is greater than 50 µM.

Take `CCN(CC)c1ccc2cc(C(=O)c3cccs3)c(=O)oc2c1`: the concentration for half-maximal inhibition (IC50) is 5.5 µM and the concentration for an effect of 90% (IC90) was greater than 50 µM.

Take `O=C(Nc1ccc(Cl)c(-c2nc3ccccc3[nH]2)c1)c1cccnc1`: the IC50 was 6.5 µM and the IC90 was greater than 50 µM.

For the compound `CC(=O)c1ccc(N2CCN(C(=O)c3cccnc3)CC2)cc1`, the IC50 is > 50 µM (inactive) and the IC90 was greater than 50 µM.

For `CCOC(=O)N1CCN(C(=O)Nc2ccc3snnc3c2)CC1`, the IC50 was 50 µM and the concentration for an effect of 90% (IC90) was greater than 50 µM.

Regarding `Cc1cc(C)n2nc(C(=O)Nc3cccnc3)cc2n1`, the IC50 was > 50 µM (inactive) and the IC90 is greater than 50 µM.
